Our source for the Ranking score and B-score functional assay values is publication PMC5681660, “Reduced hepatitis B and D viral entry using clinically applied drugs as novel inhibitors of the bile acid transporter NTCP” (Scientific Reports, 2017).

This experiment concerns the target T1, human NTCP (Homo sapiens, UniProt Q14973).
T1 sequence (Q14973 1-349): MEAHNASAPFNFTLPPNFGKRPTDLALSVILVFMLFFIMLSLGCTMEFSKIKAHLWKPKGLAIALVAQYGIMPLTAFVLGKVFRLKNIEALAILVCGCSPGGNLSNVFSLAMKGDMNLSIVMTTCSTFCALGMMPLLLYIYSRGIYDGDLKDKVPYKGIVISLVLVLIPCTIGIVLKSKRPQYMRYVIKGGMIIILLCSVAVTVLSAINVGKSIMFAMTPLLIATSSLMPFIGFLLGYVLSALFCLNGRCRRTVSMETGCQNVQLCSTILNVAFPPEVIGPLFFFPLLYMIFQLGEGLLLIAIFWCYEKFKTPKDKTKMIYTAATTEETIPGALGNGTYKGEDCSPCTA
The experiment in a line: Screening taurocholate uptake assay (96-well, [14C]taurocholate, 10 µM drug). As to conditions: for B-score functional assay: screening taurocholate uptake, 10 µM drug.

The mark [1] stands for this setting: combined ranking of functional and binding screening assays.
[2] abbreviates: ranking over the functional and the binding screening assay.

Structures can show the parent of a compound that is named as a salt.

Regarding `C=C1/C(=C\C=C2/CCC[C@]3(C)[C@@H]([C@H](C)CCCC(C)C)CC[C@@H]23)C[C@@H](O)C[C@@H]1O` [Alfacalcidol], the B-score functional assay is given as -0.117. For the same compound, under setting [1], the Ranking score was 594.47. Regarding `CCN(CC)CCNC(=O)c1cc(Cl)c(N)cc1OC.Cl` [Metoclopramide monohydrochloride], the Ranking score under setting [1] came to 1141.61. Where the note is “B-score”, the B-score functional assay came to 0.859. The compound `CCC(=O)OCC(=O)[C@@]1(OC(=O)CC)[C@@H](C)C[C@H]2[C@@H]3CCC4=CC(=O)C=C[C@]4(C)[C@@]3(Cl)[C@@H](O)C[C@@]21C` [Beclomethasone dipropionate] registered a B-score functional assay of -3.95. Under setting [2], this compound returned a Ranking score of 123.665. `Nc1ccc(/N=N/c2ccccc2)c(N)n1` [Phenazopyridine hydrochloride]: the B-score functional assay was -0.376. In addition, the Ranking score under setting [2] is on record as 182.587.

As for `COc1cc(C)nc(-n2nc(C)cc2OC)n1` [Epirizole], the B-score functional assay came out at 0.634. Besides, under setting [2], the Ranking score is listed as 209.705.

`CCCCCCCCCCCCCCCC[N+](C)(C)CCN(Cc1ccc(OC)cc1)c1ncccn1` [Thonzonium bromide] had a B-score functional assay of -2.235. Under setting [2], this compound registered a Ranking score of 50.5173.

In turn, `C[C@H](N)[C@H](O)c1cccc(O)c1` [Metaraminol bitartrate] returned a B-score functional assay of 0.952. This compound also had a Ranking score under setting [2] of 141.58. Compound `CC(=O)Nc1ccc(OCC(O)CNC(C)C)cc1` (stereo not shown) [Practolol] had a B-score functional assay of -2.472. The Ranking score under setting [2] is given as 213.764. With `CS(=O)(=O)O.O=C(O[C@H]1C[C@H]2CC3C[C@@H](C1)N2CC3=O)c1c[nH]c2ccccc12` [Dolasetron mesilate], the Ranking score under setting [1] is recorded as 1169.41. The compound also came in with a B-score functional assay (B-score) of 1.844. `COc1ccc(CCN2CCC(Nc3nc4ccccc4n3Cc3ccc(F)cc3)CC2)cc1` [Astemizole] gave a B-score functional assay of -0.026. The compound further came in with a Ranking score under setting [2] of 231.853. For `CN1CCN(c2c(F)cc3c(=O)c(C(=O)O)cn(CCF)c3c2F)CC1` [Fleroxacin], the Ranking score under setting [1] came to 1148.84. This compound also displayed a B-score functional assay (B-score) of 1.693. `[H]/N=C(/N)N[C@H]1[C@H](O)[C@@H](O)[C@H](O[C@@H]2O[C@@H](C)[C@](O)(C=O)[C@H]2O[C@@H]2O[C@@H](CO)[C@H](O)[C@@H](O)[C@@H]2NC)[C@@H](N/C(N)=N\[H])[C@@H]1O` [Streptomycin sulfate] showed a B-score functional assay of 1.326. Under setting [2], this compound yielded a Ranking score of 115.983. The compound `C[C@@](Cc1ccc(O)c(O)c1)(NN)C(=O)O` [Carbidopa] returned a B-score functional assay of 0.686. Besides, under setting [1], the Ranking score was determined as 597.675. The compound `CCCC1O[C@@H]2C[C@H]3[C@@H]4CCC5=CC(=O)C=C[C@]5(C)[C@H]4[C@@H](O)C[C@]3(C)[C@]2(C(=O)CO)O1` (stereo partly shown) [Budesonide] showed a B-score functional assay of -0.64. For the same compound, the Ranking score under setting [1] stood at 628.462. Taken in the same sequence, the figures for `CC(=O)O[C@H]1C[C@@]2(C)[C@@H](C[C@@H](O)[C@H]3[C@@]4(C)CC[C@@H](O)[C@@H](C)[C@@H]4CC[C@@]32C)/C1=C(\CCC=C(C)C)C(=O)O` [Fusidic acid sodium salt] were -0.548 and 523.068. `COc1ccc(C(=O)CC(=O)c2ccc(C(C)(C)C)cc2)cc1` [Avobenzone] yielded a B-score functional assay of -0.955. Under setting [2], the Ranking score is 206.26. Taken in the same sequence, the figures for `CCCCCN(C)CCC(O)(P(=O)([O-])O)P(=O)(O)O.[Na+]` [Ibandronate sodium] were 0.015 and 183.606. With `C=CCN1CCCC1CNC(=O)c1cc2[nH]nnc2cc1OC.Cl` (stereo not shown) [Alizapride HCl], the B-score functional assay is given as 2.201. In addition, the Ranking score under setting [1] is 642.464. Taken in the same sequence, the figures for `C#CCN(C)CCCOc1ccc(Cl)cc1Cl` [Clorgyline hydrochloride] were 0.335 and 645.563. Taken in the same sequence, the figures for `CC(C)NNC(=O)c1ccncc1.O=P(O)(O)O` [Iproniazide phosphate] were 0.714 and 542.692.

Regarding `C[n+]1ccccc1/C=N/O` [Pralidoxime chloride], the B-score functional assay is given as -0.006. Further, under setting [1], the Ranking score amounted to 600.675.

For `COc1ccc([C@@H]2CC(=O)c3c(O)cc(O[C@@H]4O[C@H](CO[C@@H]5O[C@@H](C)[C@H](O)[C@@H](O)[C@H]5O)[C@@H](O)[C@H](O)[C@H]4O)cc3O2)cc1O` [Hesperidin], the B-score functional assay is listed as 0.91. Moreover, the Ranking score under setting [1] was determined as 580.078. Consider `C#C[C@]1(OC(C)=O)CC[C@H]2[C@@H]3CCC4=C[C@@H](OC(C)=O)CC[C@@H]4[C@H]3CC[C@@]21C` [Ethynodiol diacetate], for which the B-score functional assay was -1.671. The compound also came in with a Ranking score under setting [2] of 238.458.

`CO[C@H]1/C=C/O[C@@]2(C)Oc3c(C)c(O)c4c(O)c(c(/C=N/N5CCN(C6CCCC6)CC5)c(O)c4c3C2=O)NC(=O)/C(C)=C\C=C\[C@H](C)[C@H](O)[C@@H](C)[C@@H](O)[C@@H](C)[C@H](OC(C)=O)[C@@H]1C` [Rifapentine] registered a B-score functional assay of 0.477. This compound returned a Ranking score under setting [2] of 220.209. For `CS(=O)(=O)c1ccc(C2=C(c3ccccc3)C(=O)OC2)cc1` [Rofecoxib] the same measures were 1.027 and 212.386. Taken in the same sequence, the figures for `OCCN1CCN(CCCN2c3ccccc3Sc3ccc(Cl)cc32)CC1` [Perphenazine] were -0.257 and 88.5268.

`OCCOCCN1CCN(C2=Nc3ccccc3Sc3ccccc32)CC1` [Quetiapine hemifumarate]: the B-score functional assay is reported as -0.346. In addition, the Ranking score under setting [1] amounted to 473.772.

On to `CC(=O)NC[C@H]1CN(c2ccc(N3CCOCC3)c(F)c2)C(=O)O1` [Linezolid], for which the B-score functional assay is given as -1.549. Also, the Ranking score under setting [2] is reported as 172.974.

`CC#C[C@]1(O)CC[C@H]2[C@@H]3CCC4=CC(=O)CCC4=C3[C@@H](c3ccc(N(C)C)cc3)C[C@@]21C` [Mifepristone] gave a B-score functional assay of -2.267. Moreover, the Ranking score under setting [2] came out at 246.499. For `Nc1ccc(S(=O)(=O)c2ccc(N)cc2)cc1` [Dapsone] the same measures were 0.012 and 186.888.

The compound `C[N+](C)(C)CCOC(N)=O` [Carbachol] displayed a B-score functional assay of 0.619. For the same compound, the Ranking score under setting [1] is recorded as 511.9.

Compound `CC(=O)OC1CN2CCC1CC2` (stereo not shown) [Aceclidine Hydrochloride] came in with a B-score functional assay of -1.773. The same compound showed a Ranking score under setting [2] of 189.214.

On to `CCn1cc(C(=O)[O-])c(=O)c2ccc(C)nc21.[Na+]` [Nalidixic acid sodium salt], for which the B-score functional assay is -0.033. For the same compound, under setting [1], the Ranking score is reported as 500.32.

`Cl.O.O.O=C1CC[C@@]2(O)[C@H]3Cc4ccc(O)c5c4[C@@]2(CCN3CC2CC2)[C@H]1O5` [Naltrexone hydrochloride dihydrate] returned a Ranking score (ranking score beside the functional and binding assay B-scores of the screen) of 809.543.

`CC(=O)OC(C)C[N+](C)(C)C` (stereo not shown) [Methacholine chloride]: the B-score functional assay came out at 0.496. The Ranking score under setting [1] is recorded as 628.097. For the compound `CC[C@H](C)C(=O)O[C@H]1C[C@H](O)C=C2C=C[C@H](C)[C@H](CC[C@@H](O)C[C@@H](O)CC(=O)O)[C@H]21` [Pravastatin], the B-score functional assay was -3.481. The compound further yielded a Ranking score under setting [2] of 245.632.

`CCS(=O)(=O)CCn1c([N+](=O)[O-])cnc1C` [Tinidazole] gave a B-score functional assay of -0.469. Besides, the Ranking score under setting [1] turned out to be 478.029. For `CNCC(O)c1ccc(O)c(O)c1` (stereo not shown) [Racepinephrine HCl] the same measures were -0.581 and 629.338. Taken in the same sequence, the figures for `CC(C)Oc1ccc2c(=O)c(-c3ccccc3)coc2c1` [Ipriflavone] were 2.878 and 535.848. `CCN(CC)CCNc1ccc(CO)c2sc3ccccc3c(=O)c12` [Hycanthone] had a B-score functional assay of -0.266. Moreover, the Ranking score under setting [1] was 491.684. Taken in the same sequence, the figures for `O=C(CCCN1CCC2(CC1)C(=O)NCN2c1ccccc1)c1ccc(F)cc1` [Spiperone] were -0.689 and 571.731. Taken in the same sequence, the figures for `CO[C@]12C[C@@H](COC(=O)c3cncc(Br)c3)CN(C)[C@@H]1Cc1cn(C)c3cccc2c13` [Nicergoline] were -0.256 and 615.79.

Take `CCOC(=O)n1ccn(C)c1=S` [Carbimazole]: the B-score functional assay is -0.455. Moreover, under setting [2], the Ranking score was 161.053. Compound `CCN1CCC[C@H]1CNC(=O)c1c(OC)ccc(Br)c1OC.Cl` [Remoxipride Hydrochloride] returned a B-score functional assay of -0.058. Besides, the Ranking score under setting [1] turned out to be 496.085. Taken in the same sequence, the figures for `OC(c1ccccc1)(c1ccccc1)C1CCNCC1` [Azacyclonol] were -0.041 and 525.026. For the compound `CC(=O)N(CC(O)CN(C(C)=O)c1c(I)c(C(=O)NCC(O)CO)c(I)c(C(=O)NCC(O)CO)c1I)c1c(I)c(C(=O)NCC(O)CO)c(I)c(C(=O)NCC(O)CO)c1I` (stereo not shown) [Iodixanol], the B-score functional assay stood at 2.051. Further, under setting [2], the Ranking score is listed as 270.78.
